Data from publication PMC8129133, “Polymer-free corticosteroid dimer implants for controlled and sustained drug delivery” (Nature Communications, 2021).
Where “and” joins values, the source holds several entries; their conditions need not be identical. Equal values may be shown once. Each block holds one compound with its values, some of them ahead of it.

Test: In vitro release
Assay type: physicochemical
Method: Pellets for release studies. Crystalline drug dimers were weighed on a stainless steel coupon. In the case of blends with a second drug, the dimer and drug were mixed at the desired mass ratio with mortar and pestle prior to weighing. Samples were transferred to a heat press (Carver Laboratory Press). A PTFE mold containing an array of 1 mm diameter holes of 1 mm depth was placed on top of the melt, and pressure was applied for 2 min. Molded pellets were cooled to room temperature and punched out of the mold, yielding a pellet of 1 mm height × 1 mm diameter.
Release studies were carried out using different media, including PBS (pH 7.4, Gibco), 100% FBS (Sigma, F1051), 1% FBS in PBS pH 7.4, and 3.6% BSA (Sigma, A7906) in PBS (pH 7.4, Gibco). […] Samples were incubated in release medium at 37 °C under constant agitation on an orbital shaker at 115 rpm (VWR). At designated timepoints, sampling was performed by complete removal of medium and replenishment with fresh buffer. Sampling timepoints included 24 h and then every 3–4 days thereafter. For PBS release conditions, samples were analyzed directly. For samples with protein (100% FBS, 1% FBS, 3.6% BSA), protein was precipitated by addition of acetonitrile. Samples were vortexed and centrifuged to separate extracted drug from precipitated protein. The supernatant was then analyzed for drug concentration by HPLC.

[1] = Fig 6a heterodimer pellet, 4 ml PBS, Day 1, samples and avg
[2] = Fig 6a heterodimer pellet, 4 ml PBS, Day 1, samples and avg, mean
[3] = Fig 6a heterodimer pellet, 4 ml PBS, Day 5, samples and avg
[4] = Fig 6a heterodimer pellet, 4 ml PBS, Day 5, samples and avg, mean
[5] = Fig 6a heterodimer pellet, 4 ml PBS, Day 7, samples and avg
[6] = Fig 6a heterodimer pellet, 4 ml PBS, Day 7, samples and avg, mean
[7] = Fig 6a heterodimer pellet, 4 ml PBS, Day 11, samples and avg
[8] = Fig 6a heterodimer pellet, 4 ml PBS, Day 11, samples and avg, mean
[9] = Fig 6a heterodimer pellet, 4 ml PBS, Day 14, samples and avg
[10] = Fig 6a heterodimer pellet, 4 ml PBS, Day 14, samples and avg, mean
[11] = Fig 6a heterodimer pellet, PBS, Day 1, avg
[12] = Fig 6a heterodimer pellet, PBS, Day 5, avg
[13] = Fig 6a heterodimer pellet, PBS, Day 7, avg
[14] = Fig 6a heterodimer pellet, PBS, Day 11, avg
[15] = Fig 6a heterodimer pellet, PBS, Day 14, avg

Cumulative Dex Release (Fig 5g pellet 1x1 mm, 2 ml FBS, Day 3, samples and avg): 5606.66 ng and 6179.38 ng and 5887.12 ng
Cumulative Dex Release (Fig 5g pellet 1x1 mm, 2 ml FBS, Day 3, samples and avg, mean): 5891.06 ng
Cumulative Dex Release (Fig 5g pellet 1x1 mm, 2 ml FBS, Day 7, samples and avg (Dex-Hex-Dex), mean): 15650.99 ng
Cumulative Dex Release (Fig 5g pellet 1x1 mm, 2 ml FBS, Day 10, samples and avg, mean): 22053.69 ng
Cumulative Dex Release (Fig 5g pellet 1x1 mm, 2 ml FBS, Day 14, samples and avg (Dex-Hex-Dex), mean): 34050.91 ng
Cumulative Dex Release (%) (Fig 5g pellet, FBS, Day 3, avg): 0.42%
Cumulative Dex Release (%) (Fig 5g pellet, FBS, Day 7, avg (Dex-Hex-Dex)): 1.13%
Cumulative Dex Release (%) (Fig 5g pellet, FBS, Day 10, avg): 1.59%
Cumulative Dex Release (%) (Fig 5g pellet, FBS, Day 14, avg (Dex-Hex-Dex)): 2.45%
SMILES: CC1CC2C3CCC4=CC(=O)C=CC4(C)C3(F)C(O)CC2(C)C1(O)C(=O)COC(=O)OCCCCCCOC(=O)OCC(=O)C1(O)C(C)CC2C3CCC4=CC(=O)C=CC4(C)C3(F)C(O)CC21C (stereo not drawn) [Dex-Hex-Dex]
Cumulative Dex Release (Fig 5g pellet 1x1 mm, 2 ml FBS, Day 7, samples and avg (Dex-Hex-Dex)): 14987.41 ng and 15994.59 ng and 15970.98 ng
Cumulative Dex Release (Fig 5g pellet 1x1 mm, 2 ml FBS, Day 10, samples and avg): 21287.07 ng and 22357.19 ng and 22516.81 ng
Cumulative Dex Release (Fig 5g pellet 1x1 mm, 2 ml FBS, Day 14, samples and avg (Dex-Hex-Dex)): 32738.37 ng and 34997.20 ng and 34417.18 ng

Cumulative TA Release (Fig 5b pellet 1x1 mm, 4 ml FBS, Day 3, samples and avg, mean): 7755.10 ng
Cumulative TA Release (Fig 5b pellet 1x1 mm, 4 ml FBS, Day 10, samples and avg, mean): 28286.75 ng
Cumulative TA Release (Fig 5b pellet 1x1 mm, 4 ml FBS, Day 14, samples and avg, mean): 38450.90 ng
Cumulative TA Release (%) (Fig 5b pellet, FBS, Day 1, avg): 0.13%
Cumulative TA Release (%) (Fig 5b pellet, FBS, Day 3, avg): 0.96%
Cumulative TA Release (%) (Fig 5b pellet, FBS, Day 7, avg): 2.37%
Cumulative TA Release (%) (Fig 5b pellet, FBS, Day 10, avg): 3.49%
Cumulative TA Release (%) (Fig 5b pellet, FBS, Day 14, avg): 4.75%
Cumulative TA Release (Fig 5f microparticles, 10 ml FBS, 1st time point (day not given), samples and avg): 2977.29 ng and 2848.37 ng and 4097.61 ng
Cumulative TA Release (Fig 5f microparticles, 10 ml FBS, 1st time point (day not given), samples and avg, mean): 3307.76 ng
Cumulative TA Release (Fig 5f microparticles, 10 ml FBS, 2nd time point (day not given), samples and avg, mean): 15516.68 ng
Cumulative TA Release (Fig 5f microparticles, 10 ml FBS, 3rd time point (day not given), samples and avg, mean): 50675.26 ng
Cumulative TA Release (Fig 5f microparticles, 10 ml FBS, 4th time point (day not given), samples and avg, mean): 62139.35 ng
Cumulative TA Release (Fig 5f microparticles, 10 ml FBS, 5th time point (day not given), samples and avg, mean): 84224.47 ng
Cumulative TA Release (%) (Fig 5f microparticles, FBS, 1st time point, avg): 2.67%
Cumulative TA Release (%) (Fig 5f microparticles, FBS, 2nd time point, avg): 12.50%
Cumulative TA Release (%) (Fig 5f microparticles, FBS, 3rd time point, avg): 40.83%
Cumulative TA Release (%) (Fig 5f microparticles, FBS, 4th time point, avg): 50.07%
Cumulative TA Release (%) (Fig 5f microparticles, FBS, 5th time point, avg): 67.87%
SMILES: CC1(C)OC2CC3C4CCC5=CC(=O)C=CC5(C)C4(F)C(O)CC3(C)C2(C(=O)COC(=O)OCCOCCOCCOC(=O)OCC(=O)C23OC(C)(C)OC2CC2C4CCC5=CC(=O)C=CC5(C)C4(F)C(O)CC23C)O1 (centres unmarked) [TA-TEG-TA]
Cumulative TA Release (Fig 5b pellet 1x1 mm, 4 ml FBS, Day 3, samples and avg): 5664.02 ng and 5830.61 ng and 10508.43 ng and 8884.74 ng and 7887.68 ng
Cumulative TA Release (Fig 5b pellet 1x1 mm, 4 ml FBS, Day 10, samples and avg): 24788.43 ng and 27087.36 ng and 33297.79 ng and 37315.92 ng and 18944.25 ng
Cumulative TA Release (Fig 5b pellet 1x1 mm, 4 ml FBS, Day 14, samples and avg): 34850.40 ng and 35016.99 ng and 40361.16 ng and 49853.28 ng and 32172.64 ng
Cumulative TA Release (Fig 5f microparticles, 10 ml FBS, 2nd time point (day not given), samples and avg): 14594.84 ng and 16537.75 ng and 15417.43 ng
Cumulative TA Release (Fig 5f microparticles, 10 ml FBS, 3rd time point (day not given), samples and avg): 49825.05 ng and 51101.90 ng and 51098.83 ng
Cumulative TA Release (Fig 5f microparticles, 10 ml FBS, 4th time point (day not given), samples and avg): 60024.55 ng and 61820.14 ng and 64573.36 ng
Cumulative TA Release (Fig 5f microparticles, 10 ml FBS, 5th time point (day not given), samples and avg): 83317.99 ng and 79582.57 ng and 89772.87 ng

Cumulative Dex Release [1]: 81.55 ng and 74.59 ng and 99.31 ng
Cumulative HC Release [1]: 224.52 ng and 206.99 ng and 167.90 ng
Cumulative Dex Release [2]: 85.15 ng
Cumulative HC Release [2]: 199.80 ng
Cumulative Dex Release [3]: 2326.27 ng and 2325.49 ng and 1831.14 ng
Cumulative HC Release [3]: 2952.91 ng and 3019.31 ng and 2390.05 ng
Cumulative Dex Release [4]: 2160.97 ng
Cumulative HC Release [4]: 2787.43 ng
Cumulative Dex Release [5]: 3098.36 ng and 2980.56 ng and 2543.37 ng
Cumulative HC Release [5]: 4047.00 ng and 4113.39 ng and 3426.84 ng
Cumulative Dex Release [6]: 2874.10 ng
Cumulative HC Release [6]: 3862.41 ng
Cumulative Dex Release [7]: 4911.68 ng and 4696.17 ng and 4037.68 ng
Cumulative HC Release [7]: 6283.65 ng and 6328.14 ng and 5362.18 ng
Cumulative Dex Release [8]: 4548.51 ng
Cumulative HC Release [8]: 5991.32 ng
Cumulative Dex Release [9]: 6135.25 ng and 5788.05 ng and 5026.44 ng
Cumulative HC Release [9]: 7866.10 ng and 7754.88 ng and 6681.74 ng
Cumulative Dex Release [10]: 5649.91 ng
Cumulative HC Release [10]: 7434.24 ng
Cumulative Dex Release (%) [11]: 0.0441%
Cumulative HC Release (%) [11]: 0.11%
Cumulative Dex Release (%) [12]: 1.12%
Cumulative HC Release (%) [12]: 1.51%
Cumulative Dex Release (%) [13]: 1.49%
Cumulative HC Release (%) [13]: 2.09%
Cumulative Dex Release (%) [14]: 2.35%
Cumulative HC Release (%) [14]: 3.25%
Cumulative Dex Release (%) [15]: 2.92%
Cumulative HC Release (%) [15]: 4.03%
SMILES: CC1CC2C3CCC4=CC(=O)C=CC4(C)C3(F)C(O)CC2(C)C1(O)C(=O)COC(=O)OCCOCCOCCOC(=O)OCC(=O)C1(O)CCC2C3CCC4=CC(=O)CCC4(C)C3C(O)CC21C (centres unmarked) [Dex-TEG-HC]

Cumulative HC Release (Fig 5c pellet 1x1 mm, 4 ml PBS, Day 1, samples and avg): 3582.46 ng and 3140.26 ng and 2450.67 ng
Cumulative HC Release (Fig 5c pellet 1x1 mm, 4 ml PBS, Day 1, samples and avg, mean): 3057.80 ng
Cumulative HC Release (Fig 5c pellet 1x1 mm, 4 ml PBS, Day 3, samples and avg): 8019.98 ng and 7816.75 ng and 5925.61 ng
Cumulative HC Release (Fig 5c pellet 1x1 mm, 4 ml PBS, Day 3, samples and avg, mean): 7254.11 ng
Cumulative HC Release (Fig 5c pellet 1x1 mm, 4 ml PBS, Day 7, samples and avg, mean): 19166.65 ng
Cumulative HC Release (Fig 5c pellet 1x1 mm, 4 ml PBS, Day 11, samples and avg, mean): 31062.21 ng
Cumulative HC Release (Fig 5c pellet 1x1 mm, 4 ml PBS, Day 14, samples and avg, mean): 38643.77 ng
Cumulative HC Release (%) (Fig 5c pellet, PBS, Day 1, avg): 0.51%
Cumulative HC Release (%) (Fig 5c pellet, PBS, Day 3, avg): 1.20%
Cumulative HC Release (%) (Fig 5c pellet, PBS, Day 7, avg): 3.17%
Cumulative HC Release (%) (Fig 5c pellet, PBS, Day 11, avg): 5.15%
Cumulative HC Release (%) (Fig 5c pellet, PBS, Day 14, avg): 6.40%
SMILES: CC12CCC(=O)C=C1CCC1C2C(O)CC2(C)C1CCC2(O)C(=O)COC(=O)OCCOCCOCCOC(=O)OCC(=O)C1(O)CCC2C3CCC4=CC(=O)CCC4(C)C3C(O)CC21C (centres unmarked) [HC-TEG-HC]
Cumulative HC Release (Fig 5c pellet 1x1 mm, 4 ml PBS, Day 7, samples and avg): 21489.19 ng and 20555.93 ng and 15454.82 ng
Cumulative HC Release (Fig 5c pellet 1x1 mm, 4 ml PBS, Day 11, samples and avg): 36020.08 ng and 33028.17 ng and 24138.38 ng
Cumulative HC Release (Fig 5c pellet 1x1 mm, 4 ml PBS, Day 14, samples and avg): 45741.74 ng and 40347.40 ng and 29842.17 ng
